Data as given in article PMC9181924, “Antiproliferative and Proapoptotic Effects of Phenanthrene Derivatives Isolated from Bletilla striata on A549 Lung Cancer Cells” (Molecules, 2022).
Where “and” joins values, the source holds several entries; their conditions need not be identical. Equal values may be shown once. Read-outs that look alike come from different tables or passages of the source.

Legend:
A549 cells [1] = test: MTT cytotoxicity assay on A549 cells; type: cell-based, human; settings: mean ± SD, n = 3, read-out: IC50, cytotoxicity against A549 cells
From the text: (§1) The purity of the tested compounds was more than 98%. The cytotoxic effects of isolated phenanthrenes on A549 and BEAS-2B cells were examined by MTT experiments as described in our previous report.

[2] = MTT cytotoxicity assay on BEAS-2B cells; type: cell-based; settings: BEAS-2B cells (normal human lung cells), BEAS-2B normal human lung cells, read-out: IC50, cytotoxic effect on BEAS-2B cells
From the text: as §1

A549 cells [3] = test: EdU proliferation experiment; type: cell-based, human; settings: 48 h, control 100%
Procedure: The cells were digested by trypsin and cultivated in 96-well plates (3.5 × 10^3 cells per well) for 24 h. They were incubated with compound 1 (3.13, 6.25, and 12.5 μM) for 48 h. Next, prepared EdU-labeling solution (10 µM) was used to stain the cells in an incubator at 37 °C for 2 h. The cells were fixed for 15 min with 4% cold paraformaldehyde. After that, Triton X-100 (0.3%) and Click-iT reaction cocktail were successively used to handle cells. Finally, DAPI staining was applied to the cells to counterstain them. A Leica DMI3000B inverted fluorescence microscope (Leica, Wetzlar, Germany) was used to capture the fluorescent images. In addition, to count the cells, ImageJ software (version 1.8.0) (National Institutes of Health, Bethesda, MD, USA) was used. EdU positive cells (%) = (green EdU-stained cells/blue DAPI-stained cells) × 100.

A549 cells [4] = test: Cell cycle analysis by flow cytometry; type: cell-based, human; settings: 48 h; for percentage of G0/G1 phase cells / percentage of S phase cells: Figure 3C; for percentage of G2/M phase cells: untreated control 7.41 ± 0.79%
Procedure: According to the manufacture’s instructions, the cells were treated with compound 1 (3.13, 6.25, and 12.5 μM) for 48 h. Then, they were cultured with 500 μL staining solution (RNase A:PI = 1:9) for 1 h at room temperature without light after fixation with 70% pre-chilled ethanol for 2 h. The DNA content was instantly detected with a BD FACSCanto II flow cytometer (BD Biosciences, Franklin Lakes, NJ, USA).

A549 cells [5] = test: Wound healing assay; type: cell-based, human; settings: 24 h, control 56.46 ± 4.46%
Procedure: Cells were placed in 6-well plates for the wound healing test. The scratches were formed using a sterile 200-µL pipette tip when the cells treated with compound 1 (3.13, 6.25, and 12.5 μM) had grown to 90% confluence. After a 24-h incubation, the images were obtained with the Leica microscope and the scratch area was calculated with the ImageJ.

A549 cells [6] = test: Transwell migration assay; type: cell-based, human; settings: 24 h, control 100%
Procedure: The migratory effect of compound 1 (3.13, 6.25, and 12.5 μM) on A549 cells was further detected by using transwell chambers. Briefly, the cells treated with compound 1 were placed into the upper wells, while the medium with 10% FBS was added to the bottom wells. After a 24-h incubation, non-migrated cells were cleaned up, and the migrated cells were fixed for 30 min with 4% paraformaldehyde and dyed by 0.1% crystal violet. The images and the cell numbers were obtained by the Leica microscope and ImageJ, respectively.

A549 cells [7] = test: Apoptosis by flow cytometry (Annexin V/PI); type: cell-based, human; settings: 48-h treatment, control 1.21 ± 0.37%
Procedure: Quadrants 2 (Annexin V+/PI+) and 3 (Annexin V+/PI−) pointed to the percentage of apoptotic cells. As for the control group, the apoptosis rate was only 1.21 ± 0.37%. […] The data disclosed that compound 1 greatly promoted the apoptosis of A549 cells, especially in the high-concentration group (12.5 µM).
The A549 cells were treated with compound 1 (3.13, 6.25, and 12.5 μM), and the cell apoptosis was detected by flow cytometry assay as described in our previous report.

Akt = test: Western blot, Akt phosphorylation in A549 cells; type: cell-based, human; settings: A549, 3.13, 6.25, and 12.5 µM, 48 h; p < 0.05 at 3.13 μM, p < 0.01 at 6.25 and 12.5 μM vs control
Procedure: (§2) SDS–PAGE and PVDF membranes were used to separate and transfer the protein, respectively. […] The membranes were washed with TBST and incubated with an HRP-conjugated secondary antibody for 1 h at 37 °C. Finally, the protein bands were detected with a Tanon 5200 chemiluminescent imaging system (Tanon, Shanghai, China).

MEK1/2 = test: Western blot, MEK1/2 phosphorylation in A549 cells; type: cell-based, human; settings: A549, 3.13, 6.25, and 12.5 μM, 48 h; p < 0.01 vs control
Procedure: as §2

ERK1/2 = test: Western blot, ERK1/2 phosphorylation in A549 cells; type: cell-based, human; settings: A549, 3.13, 6.25, and 12.5 µM, 48 h; p < 0.05 at 3.13 μM, p < 0.01 at 6.25 and 12.5 μM vs control
Procedure: as §2

Bcl-2 = test: Western blot, Bcl-2 expression in A549 cells; type: cell-based, human; settings: A549, 3.13, 6.25, and 12.5 μM, 48 h; p < 0.01 vs control
Procedure: as §2

Bax = test: Western blot, Bax expression in A549 cells; type: cell-based, human; settings: A549, 6.25 and 12.5 μM, 48 h; p < 0.01 vs control
Procedure: as §2

SMILES: COc1c(O)ccc2c1ccc1c(-c3c(O)cc(OC)c4c3ccc3cc(O)ccc34)c(O)cc(OC)c12 [Compound 5, bleformin G]
- IC50 (A549 cells [1]; Homo sapiens, A549, A549 cells): > 100 µM

SMILES: COc1cc(O)c(Cc2ccc(O)cc2)c2c1-c1ccc(O)cc1CC2 [Compound 12, 1-(p-hydroxybenzyl)-4-methoxy-9,10-dihydrophenanthrene-2,7-diol]
- IC50 (A549 cells [1]; Homo sapiens, A549, A549 cells): 33.3 ± 0.49 µM

SMILES: COc1cc(O)c(Cc2ccc(O)cc2)c2c1-c1ccc(Oc3c(O)cc(OC)c4c3CCc3cc(O)ccc3-4)cc1CC2 [Compound 8, blestanol C]
- IC50 (A549 cells [1]; A549 cells): 8.62 ± 0.64 µM
- IC50 (A549 cells [1]; Homo sapiens, A549, A549 cells): < 10 µM

SMILES: COc1cc(O)cc2c1-c1cc(-c3c(O)cc(OC)c4c3CCc3cc(O)ccc3-4)c(O)cc1CC2 [Compound 4, gymconopin C]
- IC50 (A549 cells [1]; A549 cells): 9.91 ± 0.68 µM
- IC50 (A549 cells [1]; Homo sapiens, A549, A549 cells): < 10 µM

SMILES: COc1cc(O)cc2c1-c1ccc(O)c(-c3c(O)cc(OC)c4c3CCc3cc(O)ccc3-4)c1CC2 [Compound 1, 4,5′-dimethoxy-9,9′,10,10′-tetrahydro-[1,1′-biphenanthrene]-2,2′,7,7′-tetraol]
- IC50 (A549 cells [1]; A549 cells): 6.86 ± 0.71 µM
- IC50 (A549 cells [1]; Homo sapiens, A549, A549 cells): < 10 µM
- IC50 [2]: 15.2 ± 1.62 µM
- percentage of EdU-positive cells (A549 cells [3]; A549, 3.13 μM): 67.66 ± 4.51%
- percentage of EdU-positive cells (A549 cells [3]; A549, 6.25 μM): 56.33 ± 4.50%
- percentage of EdU-positive cells (A549 cells [3]; A549, 12.5 μM): 34.01 ± 4.58%
- percentage of G0/G1 phase cells (A549 cells [4]; A549, 3.13 μM): 76.42%
- percentage of S phase cells (A549 cells [4]; A549, 3.13 μM): 11.73%
- percentage of G2/M phase cells (A549 cells [4]; A549, 3.13 μM): 11.85 ± 1.26% and 11.85%
- percentage of G0/G1 phase cells (A549 cells [4]; A549, 6.25 μM): 70.16%
- percentage of S phase cells (A549 cells [4]; A549, 6.25 μM): 15.31%
- percentage of G2/M phase cells (A549 cells [4]; A549, 6.25 μM): 14.53 ± 1.75% and 14.53%
- percentage of G0/G1 phase cells (A549 cells [4]; A549, 12.5 μM): 50.11%
- percentage of S phase cells (A549 cells [4]; A549, 12.5 μM): 22.81%
- percentage of G2/M phase cells (A549 cells [4]; A549, 12.5 μM): 27.08 ± 2.65% and 27.08%
- migration rate (wound healing) (A549 cells [5]; A549, 3.13 µM): 31.10 ± 2.92%
- migration rate (wound healing) (A549 cells [5]; A549, 6.25 µM): 15.23 ± 1.81%
- migration rate (wound healing) (A549 cells [5]; A549, 12.5 µM): 11.01 ± 1.81%
- migrated cell numbers (transwell) (A549 cells [6]; A549, 3.13 µM): 72.09 ± 4.65%
- migrated cell numbers (transwell) (A549 cells [6]; A549, 6.25 µM): 29.45 ± 2.92%
- migrated cell numbers (transwell) (A549 cells [6]; A549, 12.5 µM): 10.19 ± 1.25%
- apoptosis rate (Annexin V+/PI+ and Annexin V+/PI−) (A549 cells [7]; A549, 3.13 µM): 2.57 ± 0.53%
- apoptosis rate (Annexin V+/PI+ and Annexin V+/PI−) (A549 cells [7]; A549, 6.25 µM): 12.25 ± 2.21%
- apoptosis rate (Annexin V+/PI+ and Annexin V+/PI−) (A549 cells [7]; A549, 12.5 µM): 49.79 ± 8.54%
- expression ratio of p-Akt/Akt (Akt): significantly suppressed
- expression ratio of p-MEK/MEK (MEK1/2): significantly suppressed
- expression ratio of p-ERK/ERK (ERK1/2): significantly suppressed
- Bcl-2/Bax ratio (Bcl-2): reduced
- Bcl-2 protein levels (Bcl-2): significantly decreased
- Bax protein levels (Bax): increased

SMILES: COc1cc(O)c(Cc2ccc(O)cc2)c2ccc3cc(O)ccc3c12 [Compound 17, 1-(p-hydroxybenzyl)-4-methoxyphenanthrene-2,7-diol]
- IC50 (A549 cells [1]; Homo sapiens, A549, A549 cells): 32.6 ± 2.33 µM

SMILES: COc1cc(O)c(O)c2c1-c1ccc(O)cc1CC2 [Compound 10, 4-methoxy-9,10-dihydrophenanthrene-1,2,7-triol]
- IC50 (A549 cells [1]; Homo sapiens, A549, A549 cells): 16.3 ± 2.22 µM

SMILES: COc1cc(O)c(-c2c(O)cc(OC)c3c2ccc2cc(O)ccc23)c2ccc3cc(O)ccc3c12 [Compound 6, blestriarene C]
- IC50 (A549 cells [1]; A549 cells): 9.45 ± 0.52 µM
- IC50 (A549 cells [1]; Homo sapiens, A549, A549 cells): < 10 µM

SMILES: COc1cc2ccc3cc(O)ccc3c2c(OC)c1O [Compound 16, 3,7-dihydroxy-2,4-dimethoxyphenanthrene]
- IC50 (A549 cells [1]; Homo sapiens, A549, A549 cells): 63.8 ± 4.67 µM

SMILES: COc1cc(O)c(-c2c(O)cc3c(c2OC)-c2ccc(O)cc2CC3)c2c1-c1ccc(O)cc1CC2 [Compound 3, blestrianol A]
- IC50 (A549 cells [1]; Homo sapiens, A549, A549 cells): 10.5 ± 2.55 µM

SMILES: COc1cc(O)cc2c1-c1ccc(O)cc1CC2 [Compound 9, 2,7-dihydroxy-4-methoxy-9,10-dihydrophenanthrene]
- IC50 (A549 cells [1]; Homo sapiens, A549, A549 cells): 51.5 ± 1.87 µM

SMILES: COc1cc(O)c(Cc2ccc(O)cc2)c2c1-c1cc(Cc3ccc(O)cc3)c(O)cc1CC2 [Compound 14, 1,6-bis(p-hydroxybenzyl)-4-methoxy-9,10-dihydrophenanthrene-2,7-diol]
- IC50 (A549 cells [1]; Homo sapiens, A549, A549 cells): 12 ± 0.79 µM

SMILES: COc1ccc(Cc2c(O)cc(O)c3c2CCc2cc(OC)ccc2-3)cc1 [Compound 13, pleioanthrenin]
- IC50 (A549 cells [1]; A549 cells): 9.52 ± 0.47 µM
- IC50 (A549 cells [1]; Homo sapiens, A549, A549 cells): < 10 µM

SMILES: COc1cc(O)c(-c2c(O)cc3c(c2OC)-c2ccc(O)c(Cc4ccc(O)cc4)c2CC3)c2c1-c1ccc(O)cc1CC2 [Compound 2, 4,4′-dimethoxy-8′-(p-hydroxybenzyl)-9,9′,10,10′-tetrahydro-[1,3′-biphenanthrene]-2,2′,7,7′-tetraol]
- IC50 (A549 cells [1]; A549 cells): 8.75 ± 0.61 µM
- IC50 (A549 cells [1]; Homo sapiens, A549, A549 cells): < 10 µM
